Data as given in EP0674636B1, “QUINUCLIDINE DERIVATIVES AS SQUALENE SYNTHASE INHIBITORS” (ZENECA LIMITED, priority 1992, dated 1994).

How the values were obtained:
Squalene synthase = molecular target: T1, Squalene synthase (Rattus norvegicus, UniProt Q02769); assay: Inhibition of squalene synthase (formation of squalene from tritiated farnesyl pyrophosphate by rat liver microsomal protein); type: biochemical; conditions: substrate 1-[3H]-farnesyl pyrophosphate 20µM
T1 construct: from tissue; host or cells: rat liver microsomes
T1 sequence (Q02769 1-416): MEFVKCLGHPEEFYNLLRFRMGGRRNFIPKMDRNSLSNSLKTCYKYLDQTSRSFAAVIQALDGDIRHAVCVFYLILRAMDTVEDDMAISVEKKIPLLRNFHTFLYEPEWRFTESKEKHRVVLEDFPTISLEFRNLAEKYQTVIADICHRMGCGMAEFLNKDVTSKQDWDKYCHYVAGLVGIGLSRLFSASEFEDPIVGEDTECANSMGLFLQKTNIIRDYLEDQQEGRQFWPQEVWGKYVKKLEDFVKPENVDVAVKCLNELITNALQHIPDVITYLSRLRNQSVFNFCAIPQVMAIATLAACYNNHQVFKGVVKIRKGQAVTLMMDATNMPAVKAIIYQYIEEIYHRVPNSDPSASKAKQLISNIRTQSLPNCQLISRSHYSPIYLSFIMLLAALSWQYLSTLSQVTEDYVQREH
Description: (a) Inhibition of Squalene synthase
In this test, the ability of a compound to prevent the formation of squalene from a radioactive substrate (tritiated farnesyl pyrophosphate) is assessed.
The test compound is incubated at a concentration of 25 micromolar in 200µl of a buffered solution containing potassium phosphate (50mM), MgCl2 (4.95mM), KF (9.9mM), NADPH (0.9mM) and rat liver microsomal protein (20µg). Rat liver microsomes are prepared by the method described in published European Patent Application No. 324,421 and stored in liquid nitrogen prior to assay. Assay vials are kept at 37°C throughout the incubation.
The reaction is started with the addition of the substrate (1-[^3H]-farnesyl pyrophosphate), final concentration 20µM, and stopped after 15 minutes reaction time with the addition of 50µl of 4% KOH. The reaction products are separated from unreacted substrate after application to a C-18 octadecyl lccBond column (Analytichem Int product No. 617101). An aqueous fraction is eluted with 250µl of 0.1M KOH. Squalene is then eluted with 1.0 ml 10% ethylacetate in hexane and radioactivity determined. The difference in radioactivity in the presence and absence of the test compound is used to determine the level of inhibition. […] The IC50 can then be determined from a plot of percentage inhibition against concentration of test compound.

[1] = tested on: de novo hepatic cholesterol synthesis; assay: Acute rat cholesterol synthesis assay (de novo hepatic cholesterol synthesis from 14C-acetate); type: in vivo; conditions: at 50mg/kg; female rats
Description: (b) Acute rat cholesterol synthesis assay.
This is an acute in vivo test in the rat to measure de novo hepatic cholesterol synthesis from exogenously administered ^14C-acetate.
Female rats (35 - 55 g) are housed in reverse lighting conditions (red light from 0200h - 1400h) for a period of about 2 weeks prior to test. Animals are allowed free access to chow and drinking water throughout this period. At test, animals should weigh 125 - 150 g.
Test compounds may be administered by oral gavage, dissolved or suspended in 0.5% polysorbate, or by ip or iv dosing. Control animals receive vehicle alone. After 1 hour the rats are injected ip with 25µCi [2-^14C]-acetate (NEN DUPONT. specific activity, 45-60mCi/mmol NEC-085H, or AMERSHAM specific activity, 50-60mCi/mmol CFA 14) in a volume of 0.25 ml saline (100µCi/ml). After a further hour, rats are terminally anaesthetised with halothane and a blood sample obtained from the abdominal vena cava.
1ml of plasma is lyophilised and then saponified in 2ml ethanolic KOH (1 part 33% KOH, 9 parts ethanol) at 75°C for 2 hours. After addition of an equal quantity of water, non-saponifiable lipids are extracted with two 5ml volumes of hexane. The hexane extracts are evaporated to dryness and the residues dissolved in ethanol to determine cholesterol specific radioactivity. ED50 values can be determined in the standard way.

## OC1(c2ccc(/C=C/c3cccnc3)cc2)CN2CCC1CC2 (centres unmarked) [Example 2, 3-(4-[(E)-2-(3-pyridyl)vinyl]phenyl)quinuclidin-3-ol]
Squalene synthase
  inhibition at 2.5 µM: ~89%
[1]
  reduction in the rate of cholesterol biosynthesis: 72%
